# In article PMC6199744, “Development of Chemical Proteomics for the Folateome and Analysis of the Kinetoplastid Folateome” (ACS Infectious Diseases, 2018):
# Several values for one entry are separate records, joined by “and”; a condition that tells them apart may be missing. Equal values may be shown once. Read-outs that look alike come from different tables or passages of the source.
# System: L. major lysate proteins
# Test: Multitargeted bead mixture chemoproteomics, single concentration competition, proteome-wide
# Type: binding
# Conditions: for fold change: vehicle control = 1
structure (smiles),measurement,setting,value
"Nc1nc2c(c(=O)[nH]1)N(C=O)C(CNc1ccc(C(=O)N[C@@H](CCC(=O)O)C(=O)O)cc1)CN2 (some centres unmarked) [LEU, leucovorin]",fold change relative to vehicle control,,1.05 and 1.2 and 1.04
same,fold change vs vehicle control,,0.97 and 1.04
same,fold change vs vehicle control,protein CLI00016468.1 KINETOPLASTID MEMBRANE PROTEIN-11,0.87
same,fold change vs vehicle control,"protein LINJ.03.0240 RIBOSOMAL PROTEIN L38, PUTATIVE",0.99
same,fold change vs vehicle control,"protein LINJ.11.0780 40S RIBOSOMAL PROTEIN S21, PUTATIVE",1.06
same,fold change,protein LINJ.11.0960 40S RIBOSOMAL PROTEIN S5,1.08
same,fold change vs vehicle control,"protein LINJ.13.0990 PROTEASOME REGULATORY ATPASE SUBUNIT 2, PUTATIVE",0.99
same,fold change vs vehicle control,"protein LINJ.15.0330 RIBONUCLEOPROTEIN P18, MIT[…], PUTATIVE",1.01
same,fold change,"protein LINJ.19.0090 FIBRILLARIN, PUTATIVE",0.98
same,fold change relative to vehicle control,"protein LINJ.23.0860, 3-KETOACYL-COA THIOLASE, PUTATIVE",1.25
same,fold change relative to vehicle control,"protein LINJ.24.2300, 60S RIBOSOMAL PROTEIN L12, PUTATIVE",1.07
same,fold change vs vehicle control,"protein LINJ.25.2230 SUCCINYL-COA […] SUBUNIT, PUTATIVE",1.12
same,fold change vs vehicle control,"protein LINJ.26.1630 40S RIBOSOMAL PROTEIN S33, PUTATIVE",0.97
same,fold change vs vehicle control,"protein LINJ.28.1100 RIBOSOMAL PROTEIN S20, PUTATIVE",0.97
same,fold change relative to vehicle control,"protein LINJ.28.1940, R[…] A, 51KDA SUBUNIT, PUTATIVE",1.01
same,fold change,"protein LINJ.28.2280 DYNEIN LIGHT CHAIN LC6, FLAGELLAR OUTER ARM, PUTATIVE",0.84
same,fold change,"protein LINJ.28.2870 PROTEIN PHOSPHATASE 4 CATALYTIC SUBUNIT, PUTATIVE",0.86
same,fold change relative to vehicle control,"protein LINJ.31.1600, […] OXIDASE VIII (COX VIII), PUTATIVE",0.98
same,fold change relative to vehicle control,"protein LINJ.33.1730, CYCLOPHILIN 4, PUTATIVE",1.85
same,fold change vs vehicle control,"protein LINJ.34.0670 PROTEASOME REGULATORY NON-ATP-ASE SUBUNIT 11, PUTATIVE,19S PROTEASOME REGULATORY SUBUNIT",0.93
same,fold change vs vehicle control,"protein LINJ.36.0780 PROTEIN KINASE, PUTATIVE,MITOGEN-ACTIVATED PROTEIN KINASE, PUTATIVE",0.84
same,fold change relative to vehicle control,"protein LINJ.36.3960, BASIC TRANSCRIPTION FACTOR 3A, PUTATIVE",2.31
same,fold change relative to vehicle control,"protein LINJ.36.4080, HY[…], CONSERVED",1.26
same,fold change,protein LINJ.36.4180 HS1VU COMPLEX PROTEOLYTIC SUBUNIT-LIKE,0.87
same,fold change vs vehicle control,"protein LINJ.[…] LONG-CHAIN-FATTY-ACID-COA LIGASE, PUTATIVE",1.05
same,fold change,"protein LMJF.01.0570 TRIC[…], PUTATIVE",0.89
same,fold change relative to vehicle control,"protein LMJF.03.0200, DELTA-1-PYRROLINE-5-CARBOXYLATE DEHYDROGENASE, PUTATIVE",1.13
same,fold change,"protein LMJF.03.0230 LONG CHAIN FATTY ACYL COA SYNTHETASE, PUTATIVE",0.93
same,fold change,"protein LMJF.03.0980 ELONGATION INITIATION FACTOR 2 ALPHA SUBUNIT, PUTATIVE",1
same,fold change vs vehicle control,"protein LMJF.04.0630 HY[…], CONSERVED",1.02
same,fold change vs vehicle control,protein LMJF.04.1230 actin,0.94
same,fold change,"protein LMJF.05.0100 PHOSPHOPROTEIN PHOSPHATASE, PUTATIVE",0.74
same,fold change,"protein LMJF.05.0280 PROTEIN TYROSINE PHOSPHATASE, PUTATIVE",0.85
same,fold change,protein LMJF.05.0510 ATPASE ALPHA SUBUNIT,1
same,fold change,protein LMJF.05.1040 STOMATIN-LIKE PROTEIN,0.94
same,fold change,"protein LMJF.06.0650 LANOSTEROL SYNTHASE, PUTATIVE",0.97
same,fold change vs vehicle control,protein LMJF.07.0700 TOPOISOMERASE-RELATED FUNCTION PROTEIN-LIKE PROTEIN,1.01
same,fold change,protein LMJF.07.1000 RNA BINDING PROTEIN-LIKE PROTEIN,1.02
same,fold change relative to vehicle control,"protein LMJF.07.1140, PEPTIDE METHIONINE SULFOXIDE REDUCTASE-LIKE",1.3
same,fold change,"protein LMJF.08.0510 RIBOSE-PHOSPHATE PYROPHOSPHOKINASE, PUTATIVE",0.82
same,fold change vs vehicle control,protein LMJF.08.0550 T[…]-LIKE PROTEIN,1.05
same,fold change relative to vehicle control,"protein LMJF.08.1030, cathepsin L-like protease",1.06
same,fold change vs vehicle control,"protein LMJF.08.1100 HYPOTHETICAL PROTEIN, CONSERVED",0.91
same,fold change vs vehicle control,"protein LMJF.09.1010 HYPOTHETICAL PROTEIN, CONSERVED",0.98
same,fold change relative to vehicle control,"protein LMJF.09.1120, MIT[…] BINDING PROTEIN 2,MRP2, GBP25",1.22
same,fold change vs vehicle control,"protein LMJF.09.1260 HY[…], CONSERVED",1.02
same,fold change,"protein LMJF.10.0210 NUCLEOLAR PROTEIN, PUTATIVE",0.98
same,fold change vs vehicle control,"protein LMJF.10.0310 PROTEIN TRANSPORT PROTEIN SEC23, PUTATIVE",1.08
same,fold change,"protein LMJF.11.0590 3-[…]-COA C[…] SUBUNIT, PUTATIVE",0.98
same,fold change relative to vehicle control,"protein LMJF.11.0630, AMINOPEPTIDASE, PUTATIVE,METALLO-PEPTIDASE, CLAN MF, FAMILY M17",1.23
same,fold change vs vehicle control,"protein LMJF.11.1050 PRETRANSLOCATION PROTEIN, ALPHA SUBUNIT, PUTATIVE,SEC61-LIKE (PRETRANSLOCATION PROCESS) PROTEIN, PUTATIVE",0.89
same,fold change,"protein LMJF.11.1160 PROTEIN TRANSPORT PROTEIN SEC31, PUTATIVE",0.83
same,fold change,"protein LMJF.12.0030 PROTEASOME BETA-1 SUBUNIT, PUTATIVE",0.95
same,fold change vs vehicle control,"protein LMJF.12.0210 […] […]1L8 3, PUTATIVE",1.05
same,fold change relative to vehicle control,"protein LMJF.12.0530, GLUCOSE-6-PHOSPHATE ISOMERASE",1.53
same,fold change,protein LMJF.12.0630 ALANINE AMINOTRANSFERASE,0.86
same,fold change vs vehicle control,"protein LMJF.13.1230 40S RIBOSOMAL PROTEIN S4, PUTATIVE",1.16
same,fold change vs vehicle control,"protein LMJF.14.0310 […] 3 SUBUNIT, PUTATIVE",1.04
same,fold change,"protein LMJF.14.0660 FATTY ACID ELONGASE, PUTATIVE",0.88
same,fold change,"protein LMJF.14.0670 FATTY ACID ELONGASE, PUTATIVE",0.9
same,fold change vs vehicle control,"protein LMJF.14.0680 FATTY ACID ELONGASE, PUTATIVE",1.06
same,fold change,protein LMJF.14.0990 ADP/ATP MITOCHONDRIAL CARRIER-LIKE PROTEIN,0.97
same,fold change vs vehicle control,protein LMJF.14.1160 ENOLASE,1.01
same,fold change,"protein LMJF.14.1440 HYPOTHETICAL PROTEIN, CONSERVED (cytoskeleton associated protein, putative)",0.9
same,fold change,"protein LMJF.15.0040 HYPOTHETICAL PROTEIN, CONSERVED (Possible lysine decarboxylase, putative)",0.89
